Data published in ChEMBL document CHEMBL1148794, “Structure-activity relationship of a series of inhibitors of monoacylglycerol hydrolysis--comparison with effects upon fatty acid amide hydrolase” (J Med Chem, 2007).

Columns and labels:
[1] = molecular target: T1, Monoglyceride lipase (Rattus norvegicus) (UniProt Q8R431); experiment: (§1) Inhibition of MGL in rat cerebellum cytosolic fractions assessed as [3H]2-oleoylglycerol hydrolysis; assay type: tissue-based
T1 sequence (whole entry): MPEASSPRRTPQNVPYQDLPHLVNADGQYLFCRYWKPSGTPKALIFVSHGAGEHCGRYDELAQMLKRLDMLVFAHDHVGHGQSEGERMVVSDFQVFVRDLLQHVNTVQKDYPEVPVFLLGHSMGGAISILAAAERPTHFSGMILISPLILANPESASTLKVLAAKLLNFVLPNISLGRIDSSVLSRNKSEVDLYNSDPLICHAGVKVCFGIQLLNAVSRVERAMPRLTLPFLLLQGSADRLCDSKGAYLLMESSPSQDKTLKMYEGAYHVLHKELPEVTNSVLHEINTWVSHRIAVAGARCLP

Monoglyceride lipase [2] = molecular target: T2, Monoglyceride lipase (Rattus norvegicus, UniProt Q8R431); experiment: as §1; assay type: tissue-based
T2 sequence (Q8R431 whole entry): T1 sequence (whole entry)

[3] = molecular target: T1, Monoglyceride lipase (Rattus norvegicus); experiment: (§2) Inhibition of MGL in rat cerebellum membrane fractions assessed as [3H]2-oleoylglycerol hydrolysis; assay type: cell membranes
Monoglyceride lipase [4] = molecular target: T2, Monoglyceride lipase; experiment: as §2; assay type: cell membranes
[5] = molecular target: T3, Fatty-acid amide hydrolase 1 (Rattus norvegicus) (UniProt P97612); experiment: (§3) Inhibition of FAAH in rat cerebellum membranes assessed as [3H]anandamide hydrolysis; assay type: cell membranes; conditions: Membrane
T3 sequence (whole entry): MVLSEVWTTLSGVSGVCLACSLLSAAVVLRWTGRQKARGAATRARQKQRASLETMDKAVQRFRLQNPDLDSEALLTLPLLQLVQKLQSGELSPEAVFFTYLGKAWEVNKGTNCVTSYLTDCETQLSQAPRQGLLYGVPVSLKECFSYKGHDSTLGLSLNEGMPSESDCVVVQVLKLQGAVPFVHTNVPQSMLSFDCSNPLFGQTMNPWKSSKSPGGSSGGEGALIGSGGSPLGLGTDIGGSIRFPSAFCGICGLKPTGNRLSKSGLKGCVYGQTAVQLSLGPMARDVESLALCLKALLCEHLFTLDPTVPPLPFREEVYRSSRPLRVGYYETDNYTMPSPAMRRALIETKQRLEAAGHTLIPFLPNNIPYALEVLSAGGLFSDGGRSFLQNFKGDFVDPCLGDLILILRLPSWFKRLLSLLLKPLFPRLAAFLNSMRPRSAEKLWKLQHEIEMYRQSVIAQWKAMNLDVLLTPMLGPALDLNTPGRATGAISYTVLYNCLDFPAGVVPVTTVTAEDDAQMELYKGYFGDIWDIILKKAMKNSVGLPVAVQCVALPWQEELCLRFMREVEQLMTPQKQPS

[6] = molecular target: T4, Fatty-acid amide hydrolase 1 (Rattus norvegicus, UniProt P97612); experiment: as §3; assay type: cell membranes, Membrane
T4 sequence (P97612 whole entry): T3 sequence (whole entry)

[7] = molecular target: T1, Monoglyceride lipase (Rattus norvegicus); experiment: Inhibition of MGL in rat cerebellum membrane fractions assessed as [3H]2-oleoylglycerol hydrolysis at 100 uM; assay type: cell membranes
[8] = molecular target: T1, Monoglyceride lipase (Rattus norvegicus); experiment: Inhibition of MGL in rat cerebellum cytosolic fractions assessed as [3H]2-oleoylglycerol hydrolysis at 100 uM; assay type: tissue-based

| Structure (SMILES) | pI50 (-log I50, M) [1] | IC50 (Monoglyceride lipase [2]) [µM] | Log I50 [3] | IC50 (Monoglyceride lipase [4]) [µM] | pI50 (-log10 of IC50 in M) [5] | IC50 [6] [µM] | inhibition [7] [%] | inhibition [8] [%] |
| --- | --- | --- | --- | --- | --- | --- | --- | --- |
| CCCCC/C=C\C/C=C\C/C=C\C/C=C\CCCC(=O)OCC1CCCCO1 (racemic) | 5.26 | 5.6 | 4.58 | 26 | 4.3 | 51 | – | – |
| CCCCC/C=C\C/C=C\C/C=C\C/C=C\CCCC(=O)OC[C@H]1CO1 | 5.2 | 6.3 | < 4 | – | – | 6 | – | – |
| CCCCC/C=C\C/C=C\C/C=C\C/C=C\CCCC(=O)OCC1CCCO1 (centres undefined) | 4.67 | 21 | 4.1 | 75 | 4.48 | 33 | – | – |
| CCCCC/C=C\C/C=C\C/C=C\C/C=C\CCCC(=O)OCc1ccc2c(c1)OCO2 | 4.35 | 45 | < 4 | – | 4 | 91 | 3 | – |
| CCCCC/C=C\C/C=C\C/C=C\C/C=C\CCCC(=O)OCC1COC(C)(C)O1 (racemic) | 4.3 | 45 | 4 | 95 | 4 | 98 | – | – |
| O=C(OCC1CCCCO1)c1cccc(-c2ccccc2)c1 (racemic) | < 4 | – | < 4 | – | 4.75 | 18 | 49 | 36 |
| CC/C=C\C/C=C\C/C=C\CCCCCCCC(=O)OCC1CO1 (racemic) | 4.97 | 11 | 4.3 | 50 | 5.8 | 1.6 | – | – |
| O=C(OCC1CO1)c1ccc(-c2ccccc2)cc1 (racemic) | < 4 | – | < 4 | – | 4.45 | 35 | 9 | 43 |
| CCCCC/C=C\C/C=C\C/C=C\C/C=C\CCCC(=O)NCC1COC(C)(C)O1 (racemic) | 4.8 | 15 | < 4 | – | 4.05 | 90 | 45 | 71 |
| CCCCC/C=C\C/C=C\CCCCCCCC(=O)OCC1CO1 (racemic) | – | – | – | – | – | – | 18 | – |
| CCCCC/C=C\C/C=C\C/C=C\C/C=C\CCCC(=O)NC[C@@H]1CCCO1 | 5.5 | 3.5 | 4.1 | 70 | 4.16 | 69 | – | 59 |
| CCCCC/C=C\C/C=C\CCCCCCCC(=O)OCC1CCCCO1 (racemic) | 4.1 | 73 | < 4 | – | 5.13 | 7.5 | 38 | – |
| O=C(OCC1CO1)c1cccc(-c2ccccc2)c1 (racemic) | < 4 | – | < 4 | – | 4.22 | 61 | 19 | 40 |
| CCCCC/C=C\C/C=C\C/C=C\C/C=C\CCCC(=O)NC[C@H]1CCCO1 | 4.59 | 25 | 4.09 | 81 | 4.01 | 99 | – | – |
| CCCCC/C=C\C/C=C\C/C=C\C/C=C\CCCC(=O)OCCC1OCC(C)(C)CO1 | 4.57 | 27 | 4 | 99 | 4.68 | 21 | – | – |
| O=C(OCC1CCCCO1)c1ccc(-c2ccccc2)cc1 (racemic) | < 4 | – | 4.1 | 80 | 4.49 | 32 | – | 43 |
| O=C(OCC1CCCCO1)c1ccccc1 (racemic) | 5.5 | 3 | < 4 | – | 4.28 | 53 | 24 | 53 |
| CCCCCCCC/C=C\CCCCCCCC(=O)OCC1CCCCO1 (racemic) | < 4 | – | < 4 | – | 4.53 | 29 | 35 | 12 |
| CCCCC/C=C\C/C=C\C/C=C\C/C=C\CCCC(=O)OCC1CO1 (racemic) | – | – | 4.72 | 19 | – | 12 | – | – |
| O=C(OCC1CCCCO1)c1ccccc1-c1ccccc1 (racemic) | < 4 | – | < 4 | – | 4.37 | 43 | 47 | 38 |
| CCCCCCCC/C=C\CCCCCCCC(=O)OCC1CO1 (racemic) | < 4 | – | < 4 | – | 4.96 | 11 | 8 | 6 |
| CCCCC/C=C\C/C=C\C/C=C\C/C=C\CCCC(=O)NCC1CCCO1 (centres undefined) | 4.47 | 34 | < 4 | – | 4.25 | 56 | 44 | – |
| CCCCC/C=C\C/C=C\C/C=C\C/C=C\CCCC(=O)OC[C@@H]1COC(C)(C)O1 | < 4 | – | < 4 | – | 4.76 | 17 | 38 | 46 |
| CCCCC/C=C\C/C=C\C/C=C\C/C=C\CCCC(=O)OC[C@H]1COC(C)(C)O1 | 4.22 | 60 | < 4 | – | 4.55 | 28 | 34 | – |
| CCCCCC/C=C\CCCCCCCC(=O)OCC1CO1 (racemic) | 4.87 | 13 | 4.55 | 28 | 5.09 | 8.2 | – | 84 |
| CC/C=C\C/C=C\C/C=C\CCCCCCCC(=O)OCC1CCCCO1 (racemic) | 4.64 | 23 | < 4 | – | 4.73 | 19 | 33 | – |
| CCCCC/C=C\C/C=C\C/C=C\C/C=C\CCCC(=O)OC[C@@H]1CO1 | 5.1 | 8 | < 4 | – | – | 12 | – | – |
